# Measurements as given in publication PMC5011342, “A high throughput drug screening assay to identify compounds that promote oligodendrocyte differentiation using acutely dissociated and purified oligodendrocyte precursor cells” (BMC Research Notes, 2016).
# Structures can show the parent of a compound that is named as a salt. Where two headings read alike, the source gives them in different places.
# How the values were obtained:
# [1] = tested on: acutely dissociated and purified rat OPCs; assay: Acute OL differentiation assay (MBP expression/cell, immunofluorescent image quantification); assay type: cell-based; details: sheet "All OLga data"; for activation at 2 µM / activation at 10 µM / activation at 0.08 µM / activation at 0.4 µM: Rattus norvegicus; for activation at 0.08 µM: test compound at 0.08 uM, read-out: 0.08 uM (% Quet)
# Outline: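 Oligodendrocyte precursor cells were enriched from P6-P7 Sprague–Dawley rat brains by immunopanning (RAN-2 and GalC depletion, O4 selection), plated at 5000 cells/well in serum-free, mitogen-free differentiation media on PDL/laminin 96-well view plates, centrifuged at 200×g, and pre-incubated 1–2 h before test compounds were added in quadruplicate. On DIV4, cells were fixed, stained for MBP and DAPI, imaged automatically, and MBP expression per cell was quantified.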
# expanded OPCs = assay: cells; details: for viability at 0.1 µM / viability at 1 µM / viability at 10 µM: Rattus norvegicus, 72 h
# Outline: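 Expanded OPCs seeded at 10,000 cells/well in differentiation media, then exposed to NCC library compounds at 10, 1 and 0.1 µM (quadruplicate, 0.1% DMSO) for three days. Viability read as alamarBlue fluorescence (560/590 nm) after 4 h at 37 °C; tunicamycin 5 ng/ml served as toxicity control.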
# [2] = test compound at 2 uM, NCC library screen, relative to quetiapine, read-out: 2 uM (% Quet)
# [3] = test compound at 10 uM, NCC library screen, relative to quetiapine, read-out: 10 uM (% Quet)
# [4] = alamarBlue viability of expanded OPCs, compound at 0.1 µM, relative to DMSO control
# [5] = alamarBlue viability of expanded OPCs, compound at 1 µM, relative to DMSO control
# [6] = alamarBlue viability of expanded OPCs, compound at 10 µM, relative to DMSO control
# [7] = 2 uM test compound, relative to quetiapine, read-out: OL differentiation, 2 uM (% Quet)
# [8] = 10 uM test compound, relative to quetiapine, read-out: OL differentiation, 10 uM (% Quet)
# [9] = read-out: 0.1 µM (% DMSO), alamarBlue viability of expanded OPCs, compound at 0.1 µM, sheet All Tox data
# [10] = read-out: 1 µM (% DMSO), alamarBlue viability of expanded OPCs, compound at 1 µM, sheet All Tox data
# [11] = read-out: 10 µM (% DMSO), alamarBlue viability of expanded OPCs, compound at 10 µM, sheet All Tox data
# [12] = MBP expression relative to quetiapine, NCC library screen
# [13] = test compound at 0.4 uM, MBP expression relative to quetiapine, NCC library screen, read-out: 0.4 uM (% Quet)
# [14] = test compound at 2 uM, MBP expression relative to quetiapine, NCC library screen, read-out: 2 uM (% Quet)
# [15] = 0.4 uM test compound, relative to quetiapine, read-out: OL differentiation, 0.4 uM (% Quet)
# [16] = test compound at 10 uM, MBP expression relative to quetiapine, NCC library screen, read-out: 10 uM (% Quet)
# [17] = read-out: 0.1 µM (% DMSO), alamarBlue viability, NCC library compound at 0.1 µM, sheet "All Tox data"
# [18] = read-out: 1 µM (% DMSO), alamarBlue viability, NCC library compound at 1 µM, sheet "All Tox data"
# [19] = read-out: 10 µM (% DMSO), alamarBlue viability, NCC library compound at 10 µM, sheet "All Tox data"
Structure (SMILES),0.1 µM (% DMSO) (expanded OPCs; [4]),1 µM (% DMSO) (expanded OPCs; [5]),10 µM (% DMSO) (expanded OPCs; [6]),"activation at 2 µM [1, 7] [%]","activation at 10 µM [1, 8] [%]",viability at 0.1 µM (expanded OPCs; [9]) [%],viability at 1 µM (expanded OPCs; [10]) [%],viability at 10 µM (expanded OPCs; [11]) [%],other results
CC(C)OC(=O)C(C)(C)Oc1ccc(C(=O)c2ccc(Cl)cc2)cc1 [Fenofibrate],85.2,87.6,103.9,–,–,–,–,–,"activation at 2 µM [1, 2]: 31.5%; activation at 10 µM [1, 3]: -62.3%"
Oc1ccc(C2CNCCc3c2cc(O)c(O)c3Cl)cc1 (stereo not drawn) [Fenoldopam],–,–,–,-32.3,-79.8,106,97.4,75.9,–
C[N+]1(CCC(C(N)=O)(c2ccccc2)c2ccccc2)CCCCC1 [Fenpiverinium],–,–,–,-23.8,-19.5,93.3,96.9,101,–
CC(C)(C)NC(=O)[C@H]1CC[C@H]2[C@@H]3CC[C@H]4NC(=O)C=C[C@]4(C)[C@H]3CC[C@]12C [Finasteride],–,–,–,-14.4,-17.4,83.3,85.8,85.3,–
O=C(NCC1CCCCN1)c1cc(OCC(F)(F)F)ccc1OCC(F)(F)F (stereo not drawn) [Flecainide],64.1,9.0,7.7,–,–,–,–,–,"activation at 0.08 µM [1, 12]: 2.3%"
O=c1[nH]c(=O)n([C@H]2C[C@H](O)[C@@H](CO)O2)cc1F [Floxuridine],65.0,64.9,67.9,–,–,–,–,–,"activation at 0.4 µM [1, 13]: -13.5%; activation at 2 µM [1, 14]: -23.6%"
COC(=O)Nc1nc2cc(C(=O)c3ccc(F)cc3)ccc2[nH]1 [Flubendazole],–,–,–,-188,–,74.4,69.3,43.7,"activation at 0.4 µM [1, 15]: -62.9%"
OC(Cn1cncn1)(Cn1cncn1)c1ccc(F)cc1F [Fluconazole],89.6,88.1,92.1,–,–,–,–,–,"activation at 2 µM [1, 14]: 0.9%; activation at 10 µM [1, 16]: -44.2%"
Nc1[nH]c(=O)ncc1F [Flucytosine],–,–,–,-1.1,-1,98.2,90.7,99.4,–
Nc1nc(F)nc2c1ncn2[C@@H]1O[C@H](CO)[C@@H](O)[C@@H]1O [Fludarabine],91.2,88.7,77.9,–,–,–,–,–,"activation at 2 µM [1, 14]: 18.7%; activation at 10 µM [1, 16]: -12.6%"
CCOC(=O)c1ncn2c1CN(C)C(=O)c1cc(F)ccc1-2 [Flumazenil],–,–,–,-7.2,-31.7,84.8,88.2,95.5,–
CC1(C)O[C@@H]2C[C@H]3[C@@H]4C[C@H](F)C5=CC(=O)C=C[C@]5(C)[C@@]4(F)[C@@H](O)C[C@]3(C)[C@]2(C(=O)CO)O1 [Fluocinolone Acetonide],–,–,–,–,–,–,–,–,"activation at 2 µM [1, 2]: 12.9%; activation at 10 µM [1, 3]: 9.2%; viability at 0.1 µM (expanded OPCs; [17]): 116%; viability at 1 µM (expanded OPCs; [18]): 118%; viability at 10 µM (expanded OPCs; [19]): 111%"
CC(=O)OCC(=O)[C@@]12OC(C)(C)O[C@@H]1C[C@H]1[C@@H]3C[C@H](F)C4=CC(=O)C=C[C@]4(C)[C@@]3(F)[C@@H](O)C[C@@]12C [Fluocinonide],108.3,102.9,80.4,–,–,–,–,–,"activation at 2 µM [1, 14]: 12.4%; activation at 10 µM [1, 16]: -24.4%"
CC(=O)[C@@]1(O)CC[C@H]2[C@@H]3C[C@H](C)C4=CC(=O)C=C[C@]4(C)[C@@]3(F)[C@@H](O)C[C@@]21C [Fluorometholone],112.5,98.3,86.2,–,–,–,–,–,"activation at 2 µM [1, 14]: 9.3%; activation at 10 µM [1, 16]: -24.3%"
CNCCC(Oc1ccc(C(F)(F)F)cc1)c1ccccc1 (stereo not drawn) [Fluoxetine hydrochloride],77.4,42.2,7.9,–,–,–,–,–,"activation at 0.08 µM [1, 12]: 13%; activation at 0.4 µM [1, 13]: 10.7%"
CN1CCN(C2=Nc3cc(F)ccc3Cc3ccccc32)CC1 [Fluperlapine],–,–,–,–,–,–,–,–,"activation at 0.4 µM ([1]; test compound at 0.4 uM, NCC library screen, relative to quetiapine, read-out: 0.4 uM (% Quet)): -10.3%; activation at 2 µM [1, 2]: -16.2%; viability at 0.1 µM (expanded OPCs; [17]): 78.1%; viability at 1 µM (expanded OPCs; [18]): 64.8%; viability at 10 µM (expanded OPCs; [19]): 32.2%"
CC(C(=O)O)c1ccc(-c2ccccc2)c(F)c1 (stereo not drawn) [Flurbiprofen],–,–,–,-3.6,24.6,95.9,103,91.2,"activation at 2 µM [1, 2]: 1.8%; activation at 10 µM [1, 3]: -6.1%; viability at 0.1 µM (expanded OPCs; [17]): 91.1%; viability at 1 µM (expanded OPCs; [18]): 88.1%; viability at 10 µM (expanded OPCs; [19]): 89.4%"
CC(C)C(=O)Nc1ccc([N+](=O)[O-])c(C(F)(F)F)c1 [Flutamide],88.5,91.4,103.8,–,–,–,–,–,"activation at 2 µM [1, 2]: 2.7%; activation at 10 µM [1, 3]: -38.5%"
C[C@@H]1C[C@H]2[C@@H]3C[C@H](F)C4=CC(=O)C=C[C@]4(C)[C@@]3(F)[C@@H](O)C[C@]2(C)[C@@]1(O)C(=O)SCF [Fluticasone],–,–,–,14.2,-38.8,103,106,112,–
CC(C)n1c(/C=C/C(O)CC(O)CC(=O)O)c(-c2ccc(F)cc2)c2ccccc21 (stereo not drawn) [Fluvastatin],96.9,53.3,9.3,–,–,–,–,–,"activation at 0.08 µM [1, 12]: -66.1%; activation at 0.4 µM [1, 13]: -73.4%"
COCCCC/C(=N\OCCN)c1ccc(C(F)(F)F)cc1 [Fluvoxamine],–,–,–,23.1,–,79.1,67.7,40,"activation at 0.4 µM [1, 15]: 3.3%"
Nc1nc2ncc(CNc3ccc(C(=O)N[C@@H](CCC(=O)O)C(=O)O)cc3)nc2c(=O)[nH]1 [Folic acid],110.4,104.7,104.5,–,–,–,–,–,"activation at 2 µM [1, 2]: -16.1%; activation at 10 µM [1, 3]: -12.9%"
NS(=O)(=O)c1cc(C(=O)O)c(NCc2ccco2)cc1Cl [Furosemide],87.5,91.0,97.3,–,–,–,–,–,"activation at 2 µM [1, 2]: 6%; activation at 10 µM [1, 3]: -6%"
COC(=O)N1CCN(C(=O)Cc2ccc(Cl)c(Cl)c2)C(CN2CCCC2)C1 (stereo not drawn) [GR 89696],–,–,–,–,–,–,–,–,"2 uM (% Quet) ([1]; test compound at 2 uM, NCC library screen, relative to quetiapine): 34.9 % Quet; 10 uM (% Quet) ([1]; test compound at 10 uM, NCC library screen, relative to quetiapine): 63.5 % Quet; 0.1 µM (% DMSO) (expanded OPCs; alamarBlue viability, NCC library compound at 0.1 µM, sheet ""All Tox data""): 94.6 % DMSO; 1 µM (% DMSO) (expanded OPCs; alamarBlue viability, NCC library compound at 1 µM, sheet ""All Tox data""): 83.7 % DMSO; 10 µM (% DMSO) (expanded OPCs; alamarBlue viability, NCC library compound at 10 µM, sheet ""All Tox data""): 70.7 % DMSO"
CCOC(=O)c1ccc(OC(=O)CCCCCNC(=N)N)cc1 [Gabexate],–,–,–,12.6,7.2,105,109,123,–
COc1ccc2c3c1O[C@H]1C[C@@H](O)C=C[C@@]31CCN(C)C2 [Galantamine],–,–,–,14.9,16.4,86.2,81.7,81.5,–
Nc1nc(O)c2ncn(COC(CO)CO)c2n1 [Ganciclovir],103.0,100.7,106.5,–,–,–,–,–,"activation at 2 µM [1, 14]: 3.8%; activation at 10 µM [1, 16]: -9.7%"
COc1c(N2CCNC(C)C2)c(F)cc2c(=O)c(C(=O)O)cn(C3CC3)c12 (stereo not drawn) [Gatifloxacin],99.4,98.0,96.4,–,–,–,–,–,"activation at 2 µM [1, 14]: 34.6%; activation at 10 µM [1, 16]: 24.6%"
